Measured values: PubChem BioAssay (NCI)
Values joined by “and” are separate entries in the source; they are usually repeats but may differ in a detail not shown here. Equal entries are not always repeated.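 A five-concentration, 48-hour dose response in 96-well plates underlies each endpoint, interpolated linearly between surrounding concentrations. The concentration for 50% growth inhibition is given as GI50. TGI: total growth inhibition.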

Assays:
Experiment in all cases: DTP human tumour cell line panel, 48 h
[1] = tested on: A498 renal
[2] = tested on: RPMI-8226 leukemia
[3] = tested on: CCRF-CEM leukemia
[4] = tested on: SNB-75 CNS
[5] = tested on: MDA-MB-231 breast
[6] = tested on: HL-60(TB) leukemia
[7] = tested on: SW-620 colon
[8] = tested on: UO-31 renal
[9] = tested on: PC-3 prostate
[10] = tested on: HCC-2998 colon

| SMILES | GI50 [1] [µM] | TGI [1] [µM] | GI50 [2] | GI50 [3] | TGI [3] [µM] | GI50 [4] | TGI [4] | GI50 [5] | TGI [5] [µM] | GI50 [6] [µM] | TGI [6] [µM] | GI50 [7] [µM] | TGI [7] [µM] | GI50 [8] [µM] | TGI [8] [µM] | GI50 [9] | TGI [9] [µM] | GI50 [10] | TGI [10] | TGI [2] [µM] |
| --- | --- | --- | --- | --- | --- | --- | --- | --- | --- | --- | --- | --- | --- | --- | --- | --- | --- | --- | --- | --- |
| Cc1ccc(/C=C(/C#N)n2nnc3cccc(F)c32)cc1 | 0.226 | 0.877 | 0.391 µM | 0.389 µM | > 100 | 0.212 µM | 0.623 µM | 0.807 µM | 9.66 | 0.295 | 4.42 | 0.354 | 5.53 | 0.515 | 11.7 | 0.412 µM | 14.6 | 1.11 µM | 5.15 µM |  |
| CC(=O)NC(CCc1ccc(Cl)c(Cl)c1)c1cccc(O)c(=O)c1 (stereo not given) | 1.15 | 25.8 | 1.22 µM | 0.398 µM | 16.3 | 1.87 µM | 17.1 µM | 0.709 µM | 15.5 | 0.833 | 5.3 | 0.531 | 23.7 | 0.109 | 2.2 | 0.78 µM | 24.7 | 1.47 µM | 13.9 µM | 19.7 |
| Cc1cc(NS(=O)(=O)c2ccc(-c3cnc(C4CC4)o3)cc2)ccc1Cl | 0.0828 | 0.676 | 0.329 µM | 0.274 µM | > 41.1 | 0.12 µM | 0.643 µM | 0.794 µM | 12.2 | 0.232 | 1.23 | 0.13 | 15 | 0.835 | 12.5 | 0.272 µM | 15.3 | 1.23 µM | 11.7 µM | > 52.1 |
| COc1cc(C(=O)/C=C/c2cccnc2Nc2ccc(Cl)cc2)cc(OC)c1OC | 1.41 | 2.84 | 0.655 µM | 0.369 µM | 4.87 | 1.63 µM | 3 µM | 1.49 µM | 3.12 | 1.59 | 5.14 | 0.955 | 2.47 | 1.32 | 2.7 | 1.44 µM | 3.33 | 1.52 µM | 2.89 µM | 5.01 |
| CCN(CC)CCOc1ccc2c(-c3ccccc3)c(-c3ccc(OC)cc3)c(=O)oc2c1 | 3.13 | 16.4 | 2.56 µM | 3.34 µM | 15.4 | 3.69 µM | 16.7 µM | 4.91 µM | 17.5 | 1.7 | 3.98 | 2.14 | 5.76 | 1.65 | 5.55 | 4.19 µM | 18.3 | 4.22 µM | 15 µM | 11.8 |
| N#Cc1c(-c2ccccc2)nc(SCC(O)CN2CCOCC2)nc1N1CCOCC1 (stereo not given) | 2.43 | 23 | 7.78 µM | 88 µM | > 100 | 1.36 µM | 11.1 µM | 8.36 µM | > 100 | 4.05 | 15.3 | 51.9 | > 100 | 1.54 | > 100 | 2.42 µM | 7.7 | 47 µM | > 100 µM | 41.6 |
| Cc1ncnc2c1ccn2[C@@H]1C[C@H](Oc2cc(C(F)F)c(F)c3c2CNCC3)[C@@H](O)[C@H]1O | > 100 | > 100 | > 100 µM | > 100 µM | > 100 | > 100 µM | > 100 µM | > 100 µM | > 100 | > 100 | > 100 | > 100 | > 100 | > 100 | > 100 | > 100 µM | > 100 | > 100 µM | > 100 µM | > 100 |
| N#Cc1ncc(-c2ccc(C(F)(F)F)cc2)c(NC2CCCCCC2)n1 | 21.4 | > 100 | 4.99 µM | 9.97 µM | > 100 | > 100 µM | > 100 µM | 6.56 µM | > 100 | 10.4 | > 100 | 8.64 | > 100 | 12 | > 100 | 5.67 µM | > 100 | 13.2 µM | > 100 µM | > 100 |
| N=C1C(c2nc3ccccc3c(=O)[nH]2)=C(O)CN1c1cccc(Cl)c1 | 1.9 | 17.1 | 2.15 µM | 2.88 µM | > 100 | 3.83 µM | > 100 µM | > 100 µM | > 100 | 2.34 | > 100 | 3.28 | > 100 | 13.3 | > 100 | 2.69 µM | > 29.5 | 34.3 µM | > 100 µM | 6.37 |
| COc1ccc(/C=C/C(=O)OC2CC34CCNC35CC(OC5(OC)C2OC)c2ccc(OC)c(O)c24)cc1O (stereo not given) |  | > 100 | 34.6 µM and > 100 µM | 30.8 µM and > 100 µM | > 100 | 14 µM and > 100 µM | 92.7 µM and > 100 µM | 49.7 µM and > 100 µM | > 100 |  | 62.8 |  | > 100 |  | > 100 | 38.9 µM and > 100 µM | > 100 | 30.6 µM and > 100 µM | 94.2 µM and > 100 µM | > 100 |
| O=C(Nc1nc2ccc(OC(F)(F)F)cc2s1)c1ccc(F)cc1 | 2.93 | 9.2 | 2.52 µM | 3.96 µM | > 100 | 3.45 µM | 53.9 µM | 3.3 µM | 18.9 | 3.04 | 9.29 | 3.74 | > 100 | 3.44 | > 100 | 2.81 µM | 8.7 | 3.91 µM | > 100 µM | 8.08 |
| CC(C)(Oc1cccc(N2CCC[C@@H](C(=O)N(Cc3ccc(-c4cn[nH]c4)cc3)C3CC3)C2)c1)C(=O)N1CCNCC1 | 16 | 30.1 | 7.11 µM | 24.1 µM | > 100 | 1.56 µM | 18.3 µM | 14.8 µM | 29.7 | 13.8 | > 100 | 15.5 | 31.5 | 12.1 | 26.8 | 13.6 µM | 39.1 | 3.06 µM | 10.7 µM | 31.3 |
| Nc1nc(N)c2c(Cl)c(CNc3ccc(Cl)c(Cl)c3)ccc2n1 |  | 8.68 |  |  | 12.1 |  | 18.4 µM |  | 7.26 |  | 2.75 |  | 14.6 |  | 10.3 |  | 12.7 |  | 2.05 µM | 12.5 |
| O=C1NC(=NCCc2ccccc2F)S/C1=C\c1ccc2ncccc2c1 | 4.83 | 18.2 | 4.18 µM | 5.05 µM | > 20.1 | 5.34 µM | 19.1 µM | 16.2 µM | > 25 | 9.14 | 22.1 | 2.73 | > 25 | 6.91 | > 25 | 13.4 µM | > 25 | 8.55 µM | > 25 µM | 24.9 |
| C/C(=N\O)C1CC(CC(=O)O)C1(C)C (stereo not given) |  | > 100 |  |  | > 100 |  | > 100 µM |  | > 100 |  | > 100 |  | > 100 |  | > 100 |  | > 100 |  | > 100 µM | > 100 |
| CCc1nc(N)nc(N)c1-c1ccc(N2CCNCC2)c([N+](=O)[O-])c1 |  | > 100 |  |  | > 72.1 |  | > 95.8 µM |  | 69.2 |  | > 85.2 |  | > 100 |  | > 100 |  | > 100 |  | 58.8 µM | > 100 |
| COc1ccc(/C=C/C(=O)C(=O)/C=C/c2ccc(OC)c(OC)c2)cc1OC | 2.26 | 19.9 | 0.389 µM | 2.22 µM | 20 | 2.49 µM | 33.9 µM | 2.25 µM | 6 | 2.36 | 16.9 | 1.08 | 3.31 | 1.63 | 3.41 | 3.3 µM | > 100 | 1.72 µM | 3.21 µM | 2.33 |
